Measurements published in patent publication US8367713B2, “Inhibition and dispersion of bacterial biofilms with imidazole-triazole derivatives” (North Carolina State University, priority 2008, dated 2013).
Structures can show the parent of a compound that is named as a salt.

Legend:
[1] = tested on: MRSA; assay: Biofilm inhibition at 100 μM, MRSA; format: cell-based; conditions: Staphylococcus aureus, read-out: MRSA % Inhibition
Method: (§1) Procedure to Determine the Inhibitory Effect of Test Compounds on E. faecium, MRSA, S. epidermidis, PAO1, PA14, E. Coli and MDRAB Biofilm Formation: Inhibition assays were performed by taking an overnight culture of bacterial strain and subculturing it at an OD600 of 0.01 into the necessary media (brain heart infusion for E. faecium, tryptic soy broth with a 0.5% glucose supplement (TSBG) for MRSA, Luria-Bertani (LB) media for MDRAB, Luria-Bertani media without NaCl (LBNS) for PAO1 and PA14, Luria-Bertani (LB) media for E. coli and tryptic soy broth with a 0.5% glucose supplement and a 3.0% NaCl supplement (TGN) for S. epidermidis. Stock solutions of predetermined concentrations of the test compound were then made in the necessary media. These stock solutions were aliquoted (100 μL) into the wells of the 96-well PVC microtiter plate. Sample plates were then wrapped in GLAD Press n′ Seal® followed by an incubation under stationary conditions for 24 h at 37° C. After incubation, the media was discarded from the wells and the plates were washed thoroughly with water. Plates were then stained with 100 μL of 0.1% solution of crystal violet (CV) and then incubated at ambient temperature for 30 min. Plates were washed with water again and the remaining stain was solubilized with 200 μL of 95% ethanol. A sample of 125 μL of solubilized CV stain from each well was transferred to the corresponding wells of a polystyrene microtiter dish. Biofilm inhibition was quantitated by measuring the OD540 of each well in which a negative control lane wherein no biofilm was formed served as a background and was subtracted out.
Biofilm inhibition has been tested for the following compounds, each of which was tested at a concentration of 100 μM.

[2] = tested on: E. coli; assay: Biofilm inhibition at 100 μM, E. coli; format: cell-based; conditions: Escherichia coli
Method: as §1, with “Plates were washed with water again and the remaining stain was solubilized with 200 μL of 95% ethanol. A sample of 125 μL of solubilized CV stain from each well was transferred to the corresponding wells of a polystyrene microtiter dish.” left out, “out. […]” for “out.”

[3] = tested on: pre-formed A. baumannii biofilms; assay: Static bacterial biofilm dispersion assay, A. baumannii; format: cell-based; conditions: Acinetobacter baumannii
Method: (§2) General Static Bacterial Biofilm Dispersion Assay Procedure for A. baumannii, P. aeruginosa and S. aureus: Dispersion assays were performed by taking an overnight culture of bacterial strain and subculturing it at an OD600 of 0.01 into the necessary growth liquid medium. The resulting bacterial suspension was aliquoted (100 μL) into the wells of a 96-well PVC microtiter plate. Plates were then wrapped in GLAD Press n′ Seal® followed by an incubation under stationary conditions at an ambient temperature. After 24 hours, the media was discarded from the wells and the plates were washed thoroughly with tap water. Predetermined concentrations of the compound were then made in the same medium used to initially grow the biofilms and then aliquoted (100 μL) into the wells of the 96-well PVC microtiter plate with the established biofilms. Plates were then wrapped in GLAD Press n′ Seal® and incubated under stationary conditions at 37° C. After 24 hours, the media was discarded from the wells and the plates were washed thoroughly with tap water. Plates were then stained with 100 μL of 0.1% solution of crystal violet (CV) and then incubated at room temperature for 30 minutes. Plates were then washed with tap water again and the remaining stain was solubilized with 200 μL of 95% ethanol. Biofilm dispersion was quantitated by measuring the OD540 for each well by transferring 125 μL of the solubilized CV stain into a polystyrene microtiter dish for analysis.

[4] = tested on: A. baumannii biofilms; assay: Static bacterial biofilm inhibition assay (crystal violet), A. baumannii; format: cell-based, Acinetobacter baumannii; conditions: Acinetobacter baumannii, read-out: IC50 of biofilm inhibition, A. baumannii
Method: (§3) Each 2-AIT conjugate was initially screened at 300 μM for their ability to inhibit P. aeruginosa PAO1 and PA14 biofilms, A. baumannii biofilms and B. bronchiseptica Rb50 biofilms using a crystal violet reporter assay (G. A. O'Toole, R. Kolter, Molecular Microbiology 1998, 2, 295-304). […] This is an order of magnitude increase in activity when compared to DHS (J. J. Richards, R. W. Huigens, T. E. Ballard, A. Basso, J. Cavanagh, C. Melander, Chemical Communications 2008, 14, 1698-1700). […] 6 also dispersed pre-formed A. baumanni biofilms with an EC50 of 400 μM (FIG. 2A).
(§4) General Static Bacterial Biofilm Inhibition Assay Procedure for A. baumannii, P. aeruginosa, B. bronchiseptica and S. aureus: Biofilm inhibition assays were performed by taking an overnight culture of bacterial strain and subculturing it at an OD600 of 0.01 into the necessary growth liquid medium (LB for A. baumannii, LBNS for P. aeruginosa, Stainer Scholte medium that was supplemented with […] of 100× nutrient complex for B. bronchiseptica and TSBG for S. aureus) for the strain. The compound being tested was then added at a predetermined concentration and then aliquoted (100 μL) into the wells of a 96-well PVC microtiter plate (Wells not used for samples are filled with 100 μL of de-ionized water). Plates were then wrapped in GLAD Press n′ Seal® and incubated under stationary conditions at 37° C. After 24 hours, the media was discarded from the wells and the plates were washed thoroughly with tap water. Plates were then stained with 100 μL of 0.1% solution of crystal violet (CV) and then incubated at an ambient temperature for 30 minutes. Sample plates were then washed with tap water again and the remaining stain was solubilized with 200 μl, of 95% ethanol. Biofilm inhibition was quantitated by measuring the OD540 for each well by transferring 125 μL of the solubilized CV stain into a polystyrene microtiter dish for analysis.

[5] = tested on: A. baumannii planktonic growth; assay: Planktonic growth curves and colony counts, A. baumannii; format: cell-based, Acinetobacter baumannii; conditions: FIGS. 3A, 4A
Method: (§5) The OD600 was recorded at 1, 3, 4, 5, 6 and 24 hours.
(§6) General Colony Count Procedure for A. baumannii, P. aeruginosa, B. bronchiseptica and S. aeureus: Colony counts were performed by incubating either bacterial strain in the presence and absence of the test compound at 37° C. in culture tubes until the sample with the absence of the test compound reached an OD600 of 0.40 from a starting OD600 of 0.01. This typically took three to four hours. Once the OD600 of approximately 0.40 was observed, 100 μL were taken from each culture tube from which serial dilutions were made. Then, 10 μL were removed from each serial dilution and plated out on a square gridded petri-dish followed by 16 hours of incubation at 37° C. period (48 hours for B. bronchiseptica) to grow countable colonies. Viable bacteria were quantified through employment of the track-dilution method (Jett et al., Bio Techniques. 1997, 23, 648-650).

[6] = tested on: pre-formed P. aeruginosa PA14 biofilms; assay: Static bacterial biofilm dispersion assay, PA14; format: cell-based; conditions: Pseudomonas aeruginosa
Method: as §2

[7] = tested on: P. aeruginosa PAO1 biofilms; assay: Static bacterial biofilm inhibition assay (crystal violet), PAO1; format: cell-based; conditions: Pseudomonas aeruginosa
Method: as §3, §4

[8] = tested on: P. aeruginosa PA14 biofilms; assay: Static bacterial biofilm inhibition assay (crystal violet), PA14; format: cell-based; conditions: Pseudomonas aeruginosa; P. aeruginosa PA14
Method: as §3, §4

[9] = tested on: pre-formed P. aeruginosa PAO1 biofilms; assay: Static bacterial biofilm dispersion assay, PAO1; format: cell-based; conditions: Pseudomonas aeruginosa
Method: as §2

[10] = tested on: pre-formed S. aureus biofilms; assay: Static bacterial biofilm dispersion assay, S. aureus; format: cell-based; conditions: Staphylococcus aureus
Method: as §2

[11] = tested on: Staphylococcus aureus biofilm; assay: Static bacterial biofilm inhibition assay (crystal violet), S. aureus; format: cell-based
Method: as §4

[12] = tested on: B. bronchiseptica Rb50 biofilms; assay: Static bacterial biofilm inhibition assay (crystal violet), Rb50; format: cell-based; conditions: Bordetella bronchiseptica, RB50BIOFILMS
Method: as §3, §4

[13] = tested on: A. baumannii, PAO1, PA14, Rb50, S. aureus (each bacterial strain); assay: Planktonic growth curves and colony counts, each bacterial strain; format: cell-based; conditions: each bacterial strain grown in the presence of compound
Method: as §5, §6

[14] = tested on: pre-formed B. bronchiseptica Rb50 biofilms; assay: Static bacterial biofilm dispersion assay, Rb50; format: cell-based; conditions: Bordetella bronchiseptica
Method: as §2
General Static Bacterial Biofilm Dispersion Assay Procedure for B. bronchiseptica: This procedure is identical to the general dispersion procedure described above except that initial biofilm formation in the absence of the test compound was carried out at 37° C.

Question: For `CCCCCCCCCCNC(=O)Cn1cc(CCCc2c[nH]c(N)n2)nn1` [2-{4-[3-(2-amino-1H-imidazol-4-yl)-propyl]-[1,2,3]triazol-1-yl}-N-decyl-acetamide hydrochloride], which inhibition at 100 µM [1] is on record?
Answer: 99 ± 1%

Question: What about the inhibition at 100 µM [2] of the same compound?
Answer: 62.7 ± 0.4%

Question: Which inhibition at 100 µM [1] does the source give for `CCCCCCCCCCCCCCNC(=O)Cn1cc(CCCc2c[nH]c(N)n2)nn1` [2-{4-[3-(2-amino-1H-imidazol-4-yl)-propyl]-[1,2,3]triazol-1-yl}-N-tetradecyl-acetamide hydrochloride] here?
Answer: 90.8 ± 8%

Question: What about the inhibition at 100 µM [2] of the same compound?
Answer: 35.6 ± 0.6%

Question: How did the EC50 [3] turn out when `C/C(=C\c1ccccc1)Cn1cc(CCCc2c[nH]c(N)n2)nn1` [Compound 6, 5-{3-[1-(2-Methyl-3-phenyl-allyl)-1H-[1,2,3]triazol-4-yl]-propyl}-1H-imidazol-2-ylamine hydrochloride] was run?
Answer: 400 µM

Question: And the IC50 [4]?
Answer: 12 µM

Question: And the “effect on planktonic growth (growth curves and colony counts)” value [5]?
Answer: no effect on planktonic growth

Question: Which results are given for `C/C(=C\c1ccccc1)Cn1cc(CCCCCCc2c[nH]c(N)n2)nn1` [Compound 12, 4-{6-[1-(2-Methyl-3-phenyl-allyl)-1H-[1,2,3]triazol-4-yl]-hexyl}-1H-imidazol-2-ylamine hydrochloride]?
Answer: EC50 [6]: 48 µM; EC50 [3]: 36 µM; IC50 [7]: 2.7 µM; IC50 [8]: 22 µM; EC50 [9]: 51 µM; IC50 [4]: 6.8 µM; EC50 [10]: 37 µM; IC50 [11]: 4.6 µM; IC50 [12]: 70 µM; bactericidal / microbicidal activity (colony counts and growth curves) [13]: not due to microbicidal activity; EC50 [14]: 75 µM
